Reference: ChEMBL document CHEMBL2331339
Calls of active or inactive are those of the source. No cut-off for these calls is given here.

Legend:
[1] = test system: Staphylococcus aureus; test: Inhibition of alpha-hemolysin protein expression in Staphylococcus aureus 8325-4 at 4 to 256 ug/ml by Western blot analysis; type: functional, organism-based
[2] = target: T1, Alpha-hemolysin (Staphylococcus aureus) (UniProt P09616); test: Inhibition of deoxycholate-induced wild type Staphylococcus aureus alpha-hemolysin oligomerization at 16 ug/ml by SDS-PAGE analysis
T1 sequence (whole entry): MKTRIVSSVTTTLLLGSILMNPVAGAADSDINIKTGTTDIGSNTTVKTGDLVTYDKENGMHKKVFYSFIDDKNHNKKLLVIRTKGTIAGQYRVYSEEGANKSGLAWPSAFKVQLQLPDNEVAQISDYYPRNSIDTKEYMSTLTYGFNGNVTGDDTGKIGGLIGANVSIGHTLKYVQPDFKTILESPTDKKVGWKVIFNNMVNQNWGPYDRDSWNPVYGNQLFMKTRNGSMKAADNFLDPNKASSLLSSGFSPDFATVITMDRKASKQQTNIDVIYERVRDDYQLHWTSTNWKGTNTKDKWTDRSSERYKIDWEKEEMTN

[3] = target: T1, Alpha-hemolysin (Staphylococcus aureus); test: Binding affinity to wild type Staphylococcus aureus alpha-hemolysin by fluorescence quenching method
[4] = test system: Staphylococcus aureus; test: Antimicrobial activity against Staphylococcus aureus at 1024 ug/ml by broth microdilution method; type: functional, organism-based

## Cc1c(O)c(C)c2c(c1O)C(=O)CC(c1ccc(O)c(O)c1)O2 (centres undefined)
[1]
  inhibition: inactive
[2]
  inhibition: Active
[3]
  Activity: Active
[4]
  Activity: inactive
